From US20240294548A1, “TRICYCLIC SULTAMS AND SULFAMIDES AS ANTITUMOR AGENTS” (PELOTON THERAPEUTICS INC., priority 2021, published 2024)

Columns and labels:
[1] = molecular target: T1, DCAF15 RBM39 ternary complex (Homo sapiens, UniProt Q14498+Q66K64, DEL276-383); test: DCAF15 RBM39 complex formation assay (FRET); format: biochemical; conditions: FRET ratio, 20 nM DDB1DB/DCAF15, 50 nM RBM39 R1R2, overnight at 4° C.; read-out: DCAF15 RBM39 ternary complex EC50
T1 construct: Amino acids 150 to 331 of RBM39 were cloned into pGEX4T3; GST (from the pGEX4T3 vector, own knowledge) followed by a TEV cleavage site (N); made in house; host or cells: Sf9 baculovirus (DDB1ΔB/DCAF15); E. coli (RBM39 R1R2)
T1 sequence (Q66K64 with tags, fused parts or gaps DEL276-383): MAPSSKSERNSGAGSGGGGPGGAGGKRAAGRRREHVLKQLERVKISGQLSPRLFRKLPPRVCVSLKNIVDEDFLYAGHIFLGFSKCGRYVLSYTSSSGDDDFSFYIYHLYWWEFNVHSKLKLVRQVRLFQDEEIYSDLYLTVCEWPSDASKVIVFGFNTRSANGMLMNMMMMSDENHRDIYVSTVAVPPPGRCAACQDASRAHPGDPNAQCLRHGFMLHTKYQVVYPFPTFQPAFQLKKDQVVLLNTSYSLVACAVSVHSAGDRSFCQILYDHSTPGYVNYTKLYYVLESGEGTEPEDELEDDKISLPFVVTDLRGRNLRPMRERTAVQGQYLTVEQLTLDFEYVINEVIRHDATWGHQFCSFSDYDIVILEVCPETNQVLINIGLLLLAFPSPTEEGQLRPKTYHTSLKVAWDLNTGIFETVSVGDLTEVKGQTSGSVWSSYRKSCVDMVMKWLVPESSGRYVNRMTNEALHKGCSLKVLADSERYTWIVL
T1 sequence (Q14498 150-331, stated change not applied): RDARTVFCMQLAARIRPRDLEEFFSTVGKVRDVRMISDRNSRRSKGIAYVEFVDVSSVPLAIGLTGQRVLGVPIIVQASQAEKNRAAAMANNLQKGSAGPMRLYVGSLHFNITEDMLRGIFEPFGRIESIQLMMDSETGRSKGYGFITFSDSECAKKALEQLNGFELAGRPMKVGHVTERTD
Summary of the method: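 Mix of 20 nM DDB1DB/DCAF15, 50 nM RBM39 R1R2, 0.2 nM Eu-anti-6×His and 50 nM APC-anti-FLAG (25 mM HEPES pH 7.5, 100 mM NaCl). Compounds, 1 μM down in 3-fold steps over 14 points, kept overnight at 4 °C.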

[2] = tested on: HCT116 human colorectal carcinoma cells; test: CellTiter-Glo assay (cell viability); format: cell-based; conditions: HCT-116, 72 h, HCT116 cells, 3 days, CellTiter-Glo luminescence, read-out: CTG IC50
Protocol: HCT116 human colorectal carcinoma cells were used in these experiments. HCT116 cells were obtained from ATCC. CellTiter-Glo® Luminescent Cell Viability Assay Reagent was obtained from Promega.
About 3,000 cells were seeded into 96-well plate with 100 μL of media (DMEM supplemented with 10% FBS, 100 units penicillin, and […] streptomycin per mL) the day before the experiment. For compound treatment, the master plate was prepared as follows: 100× compound stocks were prepared in a 96-well plate by 1 to 3 serial dilutions of 0.5 mM DMSO stocks. Each master plate contained serial dilution of 8 compounds, including the control compound E7820. […] of 100× compound stock was added to each well of the assay plate to give final concentrations of […]. Each concentration was tested in triplicate. After 3 days, cell viability was determined using CellTiter-Glo Luminescent Cell Viability Assay Reagent following the manufacturer's recommended protocol. Briefly, […] of CellTiter-Glo reagent was added to each well of the assay plate and the contents were mixed for 3 minutes at 600 rpm on a shaker (Thermomixer R). The plate was immediately placed in a plate reader (Synergy 2) and the luminescence signal (0.5 second per well integration time) was determined. IC50 values were calculated using Dotmatics software.

[3] = molecular target: T2, DCAF15 (DDA1-DDB1ΔB-DCAF15Δpro) (Homo sapiens, UniProt Q66K64, DEL276-383); test: DCAF15 displacement assay (displacement FRET, probe PT7795); format: binding; conditions: displacement of PT7795 (300 nM), compound 0.01 to 100 μM, 18 hours incubation; read-out: DCAF15 displacement IC50
T2 construct: made in house; host or cells: Sf9 (Bac-to-Bac baculovirus)

Work on `Cn1cc(CN2Cc3cc(Cl)c4c(Cl)c[nH]c4c3NS2(=O)=O)cn1` [Compound 43, 6,7-dichloro-3-((1-methyl-1H-pyrazol-4-yl)methyl)-1,3,4,9-tetrahydro-[1,2,6] thiadiazino[4,3-g]indole 2,2-dioxide] yielded an EC50 [1] of 0.0027 µM, an IC50 [2] of 0.246 µM and an IC50 [3] of 1.05 µM.

`O=S1(=O)Nc2c(cc(Cl)c3c(Cl)c[nH]c23)CN1CC1CCOCC1` [Compound 44, 6,7-dichloro-3-((tetrahydro-2H-pyran-4-yl)methyl)-1,3,4,9-tetrahydro-[1,2,6] thiadiazino[4,3-g]indole 2,2-dioxide] showed an EC50 [1] of 0.0018 µM, an IC50 [2] of 0.0622 µM and an IC50 [3] of 0.276 µM.

`CC(=O)N1CCC(CN2Cc3cc(Cl)c4c(Cl)c[nH]c4c3NS2(=O)=O)CC1` [Compound 45, 1-(4-((6,7-dichloro-2,2-dioxido-4,9-dihydro-[1,2,6]thiadiazino[4,3-g]indol-3(1H)-yl)methyl)piperidin-1-yl)ethan-1-one] showed an EC50 [1] of 0.0016 µM, an IC50 [2] of 0.0528 µM and an IC50 [3] of 0.127 µM.

`N#Cc1ccccc1CN1Cc2cc(Cl)c3c(Cl)c[nH]c3c2NS1(=O)=O` [Compound 46, 2-((6,7-dichloro-2,2-dioxido-4,9-dihydro-[1,2,6]thiadiazino[4,3-g]indol-3(1H)-yl)methyl) benzonitrile] showed an EC50 [1] of 0.0016 µM, an IC50 [2] of 0.278 µM and an IC50 [3] of 0.294 µM.

`CC(=O)N1CC(CN2Cc3cc(Cl)c4c(Cl)c[nH]c4c3NS2(=O)=O)C1` [Compound 47, 1-(3-((6,7-dichloro-2,2-dioxido-4,9-dihydro-[1,2,6]thiadiazino[4,3-g]indol-3(1H)-yl)methyl)azetidin-1-yl) ethan-1-one] showed an EC50 [1] of 0.0004 µM, an IC50 [2] of 0.393 µM and an IC50 [3] of 0.39 µM.

`Cc1ccc(CN2Cc3cc(Cl)c4c(Cl)c[nH]c4c3NS2(=O)=O)cn1` [Compound 48, 6,7-dichloro-3-((6-methylpyridin-3-yl)methyl)-1,3,4,9-tetrahydro-[1,2,6] thiadiazino[4,3-g]indole 2,2-dioxide] was tested, and the EC50 [1] was 0.0006 µM, the IC50 [2] was 0.259 µM and the IC50 [3] was 0.623 µM.

With `O=S1(=O)Nc2c(cc(Cl)c3c(Cl)c[nH]c23)CN1Cc1ccc(C(F)(F)F)nc1` [Compound 49, 6,7-dichloro-3-((6-(trifluoromethyl)pyridin-3-yl)methyl)-1,3,4,9-tetrahydro-[1,2,6] thiadiazino[4,3-g]indole 2,2-dioxide] the EC50 [1] was 0.0007 µM, the IC50 [2] was 2.25 µM and the IC50 [3] was 8.39 µM.

In the case of `N#Cc1ccc(CN2Cc3cc(Cl)c4c(Cl)c[nH]c4c3NS2(=O)=O)cc1` [Compound 50, 4-((6,7-dichloro-2,2-dioxido-4,9-dihydro-[1,2,6]thiadiazino[4,3-g]indol-3(1H)-yl)methyl) benzonitrile], the EC50 [1] is reported as 0.0011 µM, the IC50 [2] is reported as 0.881 µM and the IC50 [3] is reported as 5.71 µM.

For `N#Cc1cccc(CN2Cc3cc(Cl)c4c(Cl)c[nH]c4c3NS2(=O)=O)c1` [Compound 51, 3-((6,7-dichloro-2,2-dioxido-4,9-dihydro-[1,2,6]thiadiazino[4,3-g]indol-3(1H)-yl)methyl) benzonitrile], the EC50 [1] was 0.0015 µM, the IC50 [2] was 0.283 µM and the IC50 [3] was 4.41 µM.

Work on `O=S1(=O)Nc2c(cc(Cl)c3c(Cl)c[nH]c23)CN1Cc1ccncn1` [Compound 52, 6,7-dichloro-3-(pyrimidin-4-ylmethyl)-1,3,4,9-tetrahydro-[1,2,6] thiadiazino[4,3-g]indole 2,2-dioxide] yielded an EC50 [1] of 0.0006 µM, an IC50 [2] of 0.0937 µM and an IC50 [3] of 0.58 µM.

In the case of `O=S1(=O)Nc2c(cc(Cl)c3c(Cl)c[nH]c23)CN1Cc1ccc(C(F)F)nc1` [Compound 53, 6,7-dichloro-3-((6-(difluoromethyl)pyridin-3-yl)methyl)-1,3,4,9-tetrahydro-[1,2,6]thiadiazino [4,3-g]indole 2,2-dioxide], the EC50 [1] is reported as 0.0034 µM, the IC50 [2] is reported as 0.394 µM and the IC50 [3] is reported as 4.28 µM.

Molecule `O=S1(=O)Nc2c(cc(Cl)c3c(Cl)c[nH]c23)CN1Cc1cnccc1Cl` [Compound 54, 6,7-dichloro-3-((4-chloropyridin-3-yl)methyl)-1,3,4,9-tetrahydro-[1,2,6] thiadiazino[4,3-g]indole 2,2-dioxide] has an EC50 [1] of 0.0012 µM, an IC50 [2] of 0.128 µM and an IC50 [3] of 0.371 µM.

`Cc1ccncc1CN1Cc2cc(Cl)c3c(Cl)c[nH]c3c2NS1(=O)=O` [Compound 55, 6,7-dichloro-3-((4-methylpyridin-3-yl)methyl)-1,3,4,9-tetrahydro-[1,2,6] thiadiazino[4,3-g]indole 2,2-dioxide] showed an EC50 [1] of 0.0017 µM, an IC50 [2] of 0.108 µM and an IC50 [3] of 0.174 µM.

`O=S1(=O)Nc2c(cc(Cl)c3c(Cl)c[nH]c23)CN1Cc1cncc(Cl)c1` [Compound 56, 6,7-dichloro-3-((5-chloropyridin-3-yl)methyl)-1,3,4,9-tetrahydro-[1,2,6] thiadiazino[4,3-g]indole 2,2-dioxide] showed an EC50 [1] of 0.0026 µM, an IC50 [2] of 0.184 µM and an IC50 [3] of 1.44 µM.

`O=c1cccc(CN2Cc3cc(Cl)c4c(Cl)c[nH]c4c3NS2(=O)=O)[nH]1` [Compound 57, 6-((6,7-dichloro-2,2-dioxido-4,9-dihydro-[1,2,6]thiadiazino[4,3-g]indol-3(1H)-yl)methyl)pyridin-2(1H)-one] showed an EC50 [1] of 0.004 µM, an IC50 [2] of 0.525 µM and an IC50 [3] of 1 µM.

Molecule `N#Cc1c[nH]c2c3c(cc(Cl)c12)CNS(=O)(=O)N3` [Compound 58, 6-chloro-1,3,4,9-tetrahydro-[1,2,6]thiadiazino[4,3-g]indole-7-carbonitrile 2,2-dioxide] has an EC50 [1] of 0.0462 µM, an IC50 [2] of 5 µM and an IC50 [3] of 14.9 µM.

Molecule `O=S1(=O)Nc2c(cc(Cl)c3c(Cl)c[nH]c23)CN1Cc1cnccn1` [Compound 59, 6,7-dichloro-3-(pyrazin-2-ylmethyl)-1,3,4,9-tetrahydro-[1,2,6] thiadiazino[4,3-g]indole 2,2-dioxide] has an EC50 [1] of 0.002 µM, an IC50 [2] of 0.12 µM and an IC50 [3] of 0.325 µM.

`O=c1cc(CN2Cc3cc(Cl)c4c(Cl)c[nH]c4c3NS2(=O)=O)cc[nH]1` [Compound 60, 4-((6,7-dichloro-2,2-dioxido-4,9-dihydro-[1,2,6]thiadiazino[4,3-g]indol-3(1H)-yl)methyl)pyridin-2(1H)-one] was tested, and the EC50 [1] was 0.0024 µM, the IC50 [2] was 2.84 µM and the IC50 [3] was 0.162 µM.

Molecule `O=S1(=O)Nc2c(cc(Cl)c3c(Cl)c[nH]c23)CN1Cc1ccnc(Cl)c1` [Compound 63, 6,7-dichloro-3-((2-chloropyridin-4-yl)methyl)-1,3,4,9-tetrahydro-[1,2,6] thiadiazino[4,3-g]indole 2,2-dioxide] has an EC50 [1] of 0.001 µM, an IC50 [2] of 0.351 µM and an IC50 [3] of 0.328 µM.

Molecule `COCCN1Cc2cc(Cl)c3c(Cl)n[nH]c3c2NS1(=O)=O` [Compound 64, 6,7-dichloro-3-(2-methoxyethyl)-1,3,4,9-tetrahydro-[1,2,6]thiadiazino[4,3-g]indazole 2,2-dioxide] has an EC50 [1] of 0.01 µM, an IC50 [2] of 5 µM and an IC50 [3] of 4.56 µM.

`Cn1cc(CN2Cc3cc(Cl)c4c(Cl)c[nH]c4c3NS2(=O)=O)ccc1=O` [Compound 65, 5-((6,7-dichloro-2,2-dioxido-4,9-dihydro-[1,2,6]thiadiazino[4,3-g]indol-3(1H)-yl)methyl)-1-methylpyridin-2(1H)-one] showed an EC50 [1] of 0.0019 µM, an IC50 [2] of 0.493 µM and an IC50 [3] of 0.934 µM.

`CC1(C)Cc2cc(Cl)c3c(Cl)c[nH]c3c2NS1(=O)=O` [Compound 66, 6,7-dichloro-3,3-dimethyl-1,3,4,9-tetrahydro-[1,2]thiazino[4,3-g]indole 2,2-dioxide] was tested, and the EC50 [1] was 0.108 µM, the IC50 [2] was 5 µM and the IC50 [3] was at least 100 µM.

Work on `O=S1(=O)Nc2c(cc(Cl)c3c(Cl)c[nH]c23)CN1Cc1ccnnc1` [Compound 67, 6,7-dichloro-3-(pyridazin-4-ylmethyl)-1,3,4,9-tetrahydro-[1,2,6] thiadiazino[4,3-g]indole 2,2-dioxide] yielded an EC50 [1] of 0.002 µM, an IC50 [2] of 0.32 µM and an IC50 [3] of 0.452 µM.

Molecule `COCCCN1Cc2cc(Cl)c3c(Cl)c[nH]c3c2NS1(=O)=O` [Compound 68, 6,7-dichloro-3-(3-methoxypropyl)-1,3,4,9-tetrahydro-[1,2,6] thiadiazino[4,3-g]indole 2,2-dioxide] has an EC50 [1] of 0.0023 µM, an IC50 [2] of 0.205 µM and an IC50 [3] of 0.63 µM.

`O=S1(=O)Nc2c(cc(Cl)c3c(Cl)c[nH]c23)CN1Cc1ccc(F)cc1` [Compound 69, 6,7-dichloro-3-(4-fluorobenzyl)-1,3,4,9-tetrahydro-[1,2,6] thiadiazino[4,3-g]indole 2,2-dioxide] showed an EC50 [1] of 0.0039 µM, an IC50 [2] of 1.2 µM and an IC50 [3] of 7.56 µM.
